Measurements published in ChEMBL document CHEMBL5257065, “Isosteviol derivatives as protein tyrosine Phosphatase-1B inhibitors: Synthesis, biological evaluation and molecular docking” (Bioorg Med Chem, 2023).
pIC50: −log10 of the molar value.

Experiments:
[1] = target: T1, Tyrosine-protein phosphatase non-receptor type 1 (Homo sapiens) (UniProt P18031); assay: Inhibition of PTP1B (unknown origin) at 10 micromol/L by DAS-ELISA; details: dose 10.0 µmol/L
T1 sequence (whole entry): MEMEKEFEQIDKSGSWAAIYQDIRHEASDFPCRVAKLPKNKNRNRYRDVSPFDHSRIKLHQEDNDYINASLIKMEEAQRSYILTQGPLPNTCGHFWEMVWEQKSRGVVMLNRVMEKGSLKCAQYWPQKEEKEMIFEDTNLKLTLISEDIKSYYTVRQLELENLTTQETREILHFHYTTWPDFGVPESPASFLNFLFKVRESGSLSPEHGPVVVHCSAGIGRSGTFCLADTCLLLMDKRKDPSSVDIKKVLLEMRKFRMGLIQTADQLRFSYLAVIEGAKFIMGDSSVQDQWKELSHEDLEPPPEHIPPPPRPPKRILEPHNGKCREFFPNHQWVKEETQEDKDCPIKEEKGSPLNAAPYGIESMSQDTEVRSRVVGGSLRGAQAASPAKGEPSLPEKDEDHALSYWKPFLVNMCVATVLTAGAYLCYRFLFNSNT

[2] = target: T2, Tyrosine-protein phosphatase non-receptor type 1 (Homo sapiens, UniProt P18031); assay: Inhibition of PTP1B (unknown origin) by DAS-ELISA
T2 sequence (P18031 whole entry): T1 sequence (whole entry)

[3] = target: T3, Tyrosine-protein phosphatase non-receptor type 2 (Homo sapiens, UniProt P17706); assay: Inhibition of TCPTP (unknown origin) by DAS-ELISA
T3 sequence (P17706 whole entry): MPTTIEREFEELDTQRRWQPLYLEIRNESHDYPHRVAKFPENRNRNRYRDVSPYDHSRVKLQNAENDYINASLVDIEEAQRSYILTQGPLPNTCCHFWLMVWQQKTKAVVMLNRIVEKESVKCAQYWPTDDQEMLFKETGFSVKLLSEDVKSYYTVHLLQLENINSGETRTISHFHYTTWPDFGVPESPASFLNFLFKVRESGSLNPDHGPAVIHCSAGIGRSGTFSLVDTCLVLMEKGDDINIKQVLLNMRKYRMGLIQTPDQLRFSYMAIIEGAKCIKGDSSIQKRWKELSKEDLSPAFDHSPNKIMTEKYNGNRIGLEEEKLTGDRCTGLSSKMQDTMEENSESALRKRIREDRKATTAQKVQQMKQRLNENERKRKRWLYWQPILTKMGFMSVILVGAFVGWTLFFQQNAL

[4] = target: T4, M-phase inducer phosphatase 2 (Homo sapiens, UniProt P30305); assay: Inhibition of CDC25B (unknown origin) by DAS-ELISA
T4 sequence (P30305 whole entry): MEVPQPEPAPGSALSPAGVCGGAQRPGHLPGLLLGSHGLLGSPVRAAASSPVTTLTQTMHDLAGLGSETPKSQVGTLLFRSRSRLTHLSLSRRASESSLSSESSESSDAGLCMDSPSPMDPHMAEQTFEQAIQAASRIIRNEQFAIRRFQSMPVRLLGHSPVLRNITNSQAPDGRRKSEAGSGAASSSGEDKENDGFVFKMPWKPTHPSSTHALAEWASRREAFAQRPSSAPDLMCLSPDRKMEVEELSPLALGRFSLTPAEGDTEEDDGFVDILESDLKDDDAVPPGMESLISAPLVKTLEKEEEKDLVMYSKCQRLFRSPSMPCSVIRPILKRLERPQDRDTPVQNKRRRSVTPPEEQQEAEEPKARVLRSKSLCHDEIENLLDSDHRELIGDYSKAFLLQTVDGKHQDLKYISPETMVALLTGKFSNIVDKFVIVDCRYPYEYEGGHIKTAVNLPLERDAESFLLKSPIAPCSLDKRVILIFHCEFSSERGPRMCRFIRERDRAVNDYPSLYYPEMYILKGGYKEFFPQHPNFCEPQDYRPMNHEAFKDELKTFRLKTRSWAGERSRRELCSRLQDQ

Homo sapiens [5] = organism: Homo sapiens; assay: Selectivity ratio of IC50 for TCPTP (unknown origin) to IC50 for PTP1B (unknown origin) by DAS-ELISA
Homo sapiens [6] = organism: Homo sapiens; assay: Selectivity ratio of IC50 for CDC25B (unknown origin) to IC50 for PTP1B (unknown origin) by DAS-ELISA

Row | inhibition [1] | Compound | also measured
1 | 74% | CC(=O)O[C@@H]1C[C@]23CC[C@H]4[C@@](C)(CCC[C@@]4(C)C(=O)O)[C@@H]2CC[C@@]1(C)C3 | –
2 | 61.9% | CCCOC(=O)[C@]1(C)CCC[C@@]2(C)[C@@H]3CC[C@@]4(C)C[C@]3(CC[C@@H]21)CC4=O | –
3 | 71.8% | Cc1ccc(COC(=O)[C@]2(C)CCC[C@@]3(C)[C@@H]4CC[C@@]5(C)C[C@]4(CC[C@@H]32)CC5=O)cc1 | –
4 | 76.3% | CCCOC(=O)[C@]1(C)CCC[C@@]2(C)[C@@H]3CC[C@@]4(C)C[C@]3(CC[C@@H]21)C/C4=N\O | –
5 | 74.2% | C[C@@]12CC[C@@H]3[C@@](CC[C@H]4[C@@]3(C)CCC[C@@]4(C)C(=O)OCCN3CCCCC3)(CC1=O)C2 | –
6 | 79% | CCOC(=O)[C@]1(C)CCC[C@@]2(C)[C@@H]3CC[C@@]4(C)C[C@]3(CC[C@@H]21)C[C@H]4OC(=O)c1ccc(O)cc1 | pIC50 [2]: 6.44; pIC50 [3]: 5.58; pIC50 [4]: 5.63; Ratio IC50 (Homo sapiens [5]): 3.5; Ratio IC50 (Homo sapiens [6]): 6
7 | 76% | C[C@@]12CC[C@@H]3[C@@](CC[C@H]4[C@@]3(C)CCC[C@@]4(C)C(=O)OCc3cccc(C#N)c3)(CC1=O)C2 | –
8 | 81.7% | CCOC(=O)[C@]1(C)CCC[C@@]2(C)[C@@H]3CC[C@@]4(C)C[C@]3(CC[C@@H]21)[C@H](Br)C4=O | pIC50 [2]: 6.62; pIC50 [3]: 5.77; pIC50 [4]: 5.48; Ratio IC50 (Homo sapiens [5]): 7; Ratio IC50 (Homo sapiens [6]): 14
9 | 75.3% | Cc1ccc(S(=O)(=O)N/N=C2/C[C@]34CC[C@H]5[C@@](C)(CCC[C@@]5(C)C(=O)O)[C@@H]3CC[C@@]2(C)C4)cc1 | –
10 | 67.2% | CCOC(=O)[C@]1(C)CCC[C@@]2(C)[C@@H]3CC[C@@]4(C)C[C@]3(CC[C@@H]21)C[C@H]4O | –
11 | 75.5% | CCOC(=O)[C@]1(C)CCC[C@@]2(C)[C@@H]3CC[C@@]4(C)C[C@]3(CC[C@@H]21)C[C@H]4OC(=O)c1ccccc1 | –
12 | 61.9% | C[C@@]12CC[C@@H]3[C@@](CC[C@H]4[C@@]3(C)CCC[C@@]4(C)C(=O)O)(C/C1=N\O)C2 | –
13 | 50.3% | C[C@@]12CC[C@@H]3[C@@](CC[C@H]4[C@@]3(C)CCC[C@@]4(C)C(=O)OCc3ccccc3Br)(CC1=O)C2 | –
14 | 78.5% | C[C@@]12CC[C@@H]3[C@@](CC[C@H]4[C@@]3(C)CCC[C@@]4(C)C(=O)OCCN3CCNCC3)(CC1=O)C2 | pIC50 [2]: 6.10
15 | 36.2% | C[C@@]12CC[C@@H]3[C@@](CC[C@H]4[C@@]3(C)CCC[C@@]4(C)C(=O)O)(C[C@H]1O)C2 | –
16 | 71.5% | CCOC(=O)[C@]1(C)CCC[C@@]2(C)[C@@H]3CC[C@@]4(C)C[C@]3(CC[C@@H]21)C/C4=N\OC | –
17 | 73.6% | C[C@@]12CC[C@@H]3[C@@](CC[C@H]4[C@@]3(C)CCC[C@@]4(C)C(=O)OCCBr)(CC1=O)C2 | –
18 | 82.6% | C[C@@]12CC[C@@H]3[C@@](CC[C@H]4[C@@]3(C)CCC[C@@]4(C)C(=O)OCc3ccccc3I)(CC1=O)C2 | pIC50 [2]: 6.40; pIC50 [3]: 5.85; pIC50 [4]: 5.49; Ratio IC50 (Homo sapiens [5]): 3.5; Ratio IC50 (Homo sapiens [6]): 6
19 | 50.8% | CCOC(=O)[C@]1(C)CCC[C@@]2(C)[C@@H]3CC[C@@]4(C)C[C@]3(CC[C@@H]21)C/C4=N\O | –
20 | 71.9% | C[C@@]12CC[C@@H]3[C@@](CC[C@H]4[C@@]3(C)CCC[C@@]4(C)C(=O)OCCCCCBr)(CC1=O)C2 | –
21 | 79.6% | C[C@@]12CC[C@@H]3[C@@](CC[C@H]4[C@@]3(C)CCC[C@@]4(C)C(=O)OCc3ccc(Br)cc3)(CC1=O)C2 | pIC50 [2]: 6.48; pIC50 [3]: 5.49; pIC50 [4]: 5.45; Ratio IC50 (Homo sapiens [5]): 3.5; Ratio IC50 (Homo sapiens [6]): 6
22 | 22% | COC(=O)[C@]1(C)CCC[C@@]2(C)[C@@H]3CC[C@@]4(C)C[C@]3(CC[C@@H]21)C/C4=N\O | –
23 | 70.9% | C[C@@]12CC[C@@H]3[C@@](CC[C@H]4[C@@]3(C)CCC[C@@]4(C)C(=O)OCCCCBr)(CC1=O)C2 | –
24 | 52.4% | C[C@@]12CC[C@@H]3[C@@](CC[C@H]4[C@@]3(C)CCC[C@@]4(C)C(=O)OCc3ccccc3)(CC1=O)C2 | –
25 | 43.8% | C[C@@]12CC[C@@H]3[C@@](CC[C@H]4[C@@]3(C)CCC[C@@]4(C)C(=O)OCc3ccccc3Cl)(CC1=O)C2 | –
26 | 70.1% | COC(=O)[C@]1(C)CCC[C@@]2(C)[C@@H]3CC[C@@]4(C)C[C@]3(CC[C@@H]21)CC4=O | –
27 | 73.9% | CCOC(=O)[C@]1(C)CCC[C@@]2(C)[C@@H]3CC[C@@]4(C)C[C@]3(CC[C@@H]21)CC4=O | –
28 | 63.6% | C[C@@]12CC[C@@H]3[C@@](CC[C@H]4[C@@]3(C)CCC[C@@]4(C)C(=O)O)(CC1=O)C2 [ISOSTEVIOL] | pIC50 [2]: 5.64; pIC50 [3]: 5.80; pIC50 [4]: 5.68
29 | 77.7% | C[C@@]12CC[C@@H]3[C@@](CC[C@H]4[C@@]3(C)CCC[C@@]4(C)C(=O)OCCCCN3CCCCC3)(CC1=O)C2 | –
